In patent US9408393B2, “Bismuth-thiols as antiseptics for agricultural, industrial and other uses” (Microbion Corporation, priority 2010, dated 2016):

Key:
marine diatom = experiment: Marine diatom settlement inhibition; conditions: 0.1 μg/ml
Procedure: The effect of three bismuth containing compounds, bismuth dimercaprol (BisBAL), bismuth dimercaptotoluene (BisTOL), and bismuth ethanedithiol (BisEDT), on growth of a marine diatom was determined according to techniques practiced in the art. Settlement of marine diatoms (diatoms per fov) was inhibited by increasing concentrations of each of the three compounds (0.001, 0.01, 0.1, 1.0, and 10.0 μg/ml). […] 1987; 41:435-64; Domenico et al., Antimicrob Agents and Chemother. 2001; 45(5):1417-21; Halwani et al., Int J Pharm. 2008; 358:278-84; Johnson et al., Clin Infect Dis. 2007; 45(4):409-415. ADA Council on Scientific Affairs. Direct and indirect restorative materials. JADA 2003; 134:463-72. Alliance for Coastal Technologies (ACT). 2004. Biofouling Prevention Technologies for Coastal Sensors/Sensor Platforms. University of Maryland Center of Environmental Science, Workshop Proceedings, November 2003. UMCES Technical Report Series No. TS-426-04-CBL, Solomons, M D. Athanassiadis et al., Aust Dent J 2007; 52:S64-82. Alt et al., Antimicrob Agents Chemother 2004; 48:4084-88. Bayston et al., Biomaterials 2009; 30:3167-73. Bernardo et al., JADA 2007; 138:775-783. Beytha et al., J Dent 2007; 35:201-206. Bohner et al., J Pharm Sci 1997; 86:565-72. Bruxton, Eng News 1908; 59,525; Chem. Abs., 2:2010. Bueno et al. Oral Surg Oral Med Oral Pathol Oral Radiol Endod 2009; 107:e65-9. […]

barnacle larvae = experiment: Barnacle larvae settlement inhibition
Procedure: Compounds, BisBAL and BisTOL were included in an assay to determine the inhibitory activity of each compound on barnacle larvae settlement behavior. Methods were performed according to techniques practiced in the art. […] In another experiment, BisEDT was dissolved either directly in natural seawater or first dissolved in DMSO and then diluted in natural seawater. The EC50 measurements were not statistically different.

M. hydrocarbonoclasicus = experiment: MIC against marine bacteria; type: cell-based; conditions: marine bacterium M. hydrocarbonoclasicus
Procedure: (§1) This example describes the antimicrobial activity of bismuth containing compounds. The MIC values of three bismuth containing compounds, bismuth dimercaprol (BisBAL), bismuth dimercaptotoluene (BisTOL), and bismuth ethanedithiol (BisEDT), against three different marine bacteria were determined using methods routinely practiced by persons skilled in the art.

H. marina = experiment: MIC against marine bacteria; type: cell-based; conditions: marine bacterium H. marina
Procedure: as §1

V. alginolyticus = experiment: MIC against marine bacteria; type: cell-based; conditions: marine bacterium V. alginolyticus
Procedure: as §1

Enteromorpha spores = experiment: Inhibition of algae spore germination; conditions: up to ten micrograms per ml
Procedure: The effect of three bismuth containing compounds, bismuth dimercaprol (BisBAL), bismuth dimercaptotoluene (BisTOL), and bismuth ethanedithiol (BisEDT), on the settlement of algae was determined, particularly the ability of each compound to inhibit germination of Enteromorpha spores. Each compound was tested at 0.001, 0.01, 0.1, 1.0, and 10.0 μg/ml.

Substance: bismuth dimercaptotoluene [BisTOL]
- Inhibition of marine diatom settlement (marine diatom): approximately 30%
- EC50 (concentration at which 50% settlement inhibition occurs) (barnacle larvae): 15.4 ppm
- MIC (M. hydrocarbonoclasicus): 0.4 µg/mL
- MIC (H. marina): 7.2 µg/mL
- MIC (V. alginolyticus): 1 µg/mL
- Effect on germination of algae spores (Enteromorpha spores): no inhibitory effect
